Read-outs that look alike come from different tables or passages of the source.
Key:
caspase 3 [1] = format: cell-based, human
Description: (§1) SH-SY5Y human neuroblastoma cells were obtained from the American Tissue Culture Collection (www.atcc.org) and maintained in culture in a replicating state. For caspase assays and cytochrome C release studies they were grown in T75 flasks with DMEM/high glucose containing 10% fetal bovine serum, antibiotic/antimicotic (100 IU/ml of penicillin, 100 μg/ml of streptomycin sulfate, 0.25 μg/ml of amphotericin B) and 50 μg/ml of uridine and 100 μg/ml of pyruvate in a 5% CO2 atmosphere at 37° C. to approximately full confluence (2×10^7 cell/flask). They were then incubated with 5 mM methylpyridinium iodide (MPP+; Sigma; www.sigma-aldrich.com) or 100 μM 25–35 or 35–25 beta amyioid peptides (Bachem; www.bachem.com) for varying times, then harvested. For cell death studies, the cells were plated into 96 well black-bottom plates and grown for 24 hours in DMEM media before being exposed to toxin.
(§2) After exposure to MPP+ or beta amyloid peptide, cells were collected in PBS and centrifuged at 450×g for 6 minutes at 4° C. Cell pellets were resuspended in a hypotonic cell lysis buffer [25 mM HEPES, 5 mM MgCl2, 5 mM EDTA, […] and protease inhibitor cocktail (Sigma Chemical)] at a concentration of 2×10^7 cells/100 μl of lysis buffer. Lysates were subjected to four cycles of freezing and thawing. Cell lysates were then centrifuged at 16,000×g for 30 minutes at 4° C. The supernatant fractions were collected, and protein content was measured by Lowry assay (BioRad). 100 μg of protein was used to measure caspase activity in 96 well plates and was assayed in quadruplicate. The activity was measured using the assay buffer and the protocol provided by the manufacturers. (Biomol, caspase 3; Promega, caspases 3 and 9). […] Chromogen absorbance (p-NA) was measured on an OptiMax plate reader or chromogen fluorescence (AMC) on a SpectraMax Gemini plate reader at zero time and after 30 minutes of incubation at 37 degrees to estimate relative caspase activities. Chromogen signal at zero time was subtracted from the readings at 30 minutes.
(§3) R(+) and S(−) PPX (gifts of Pharmacia Corporation) were obtained as their dihydrochloride salts and dissolved directly into culture media. Bongkreckic acid, an antagonist of the ATP binding site on the adenine nucleotide translocator, was provided as a solution in 1M NH4OH. Aristolochic acid (sodium salt), a phospholipase A2 inhibitor, was obtained from Sigma Chemical Co. In the caspase experiments, drugs were added 1 hour before MPP+ or beta amyloid peptide. In the calcein/cell death experiments, drugs were added 4 hours before MPP+.

SH-SY5Y cells = format: cell-based, human
Description: as §1
Cell death was estimated by measuring loss of calcein retention with the “Live-Dead” assay (Molecular Probes; www.molecularprobes.com) in cells grown in 96 well plates and incubated with calcein-AM, according to manufacturer's instructions. Calcein signals were assayed in a SpectraMax Gemini adjustable fluorescent plate reader (Molecular Devices). Calcein fluorescence from cells preincubated with methanol was subtracted from all readings as background. Each assay was performed with 8 wells/condition, which were averaged. 3–8 independent experiments were performed to evaluate a broad range of concentrations of S(−) and R(+) PPX in this paradigm.
as §3

[2] = 8 week toxicology study in mice, pathology of major organs; format: in vivo; details: drinking water, 8 weeks
Description: Toxicology studies have also been conducted and no evidence of adverse effects were detected. In particular, an 8 week toxicology study was performed in the mice given R(+) PPX in their drinking water.

[3] = tested on: D2 family dopamine receptors; details: cited from earlier work
[4] = relative to S(−) pramipexole; cited from earlier work
caspase 9 = format: cell-based, human
Description: as §1, §2, §3

oxidative stress [5] = assay: MPTP-induced forebrain oxidative stress (2,3-DHBA) in mice; format: in vivo, C57BL/6 mice; details: MPTP 30 mg/kg s.c.
Description: Male C57BL/6 mice received daily R(+) pramipexole dihydrochloride in drinking water for 8 weeks at doses calculated to provide 0, 10, 30 or 100 mg/kg/day. On the day of the study the mice were injected with 30 mg/kg s.c. of the neurotoxin N-methyl-4-phenyl-1,2,3,6-tetrahydropyridine (MPTP) to increase oxidative stress in the brain. One hour later the mice were injected with 100 mg/kg i.p. of sodium salicylate. One hour after salicylate injection the mice were killed and forebrains analyzed for 2,3-dihydroxybenzoic acid (2,3-DHBA) content.

[6] = ALS subjects who completed dose escalation, 3–6 mg per day
Description: Following acquisition of these baseline samples, SALS participants began pramipexole therapy. Dosage escalation was performed similar to PD patients with an attempt made to reach 1.5 mg t.i.d.-q.i.d. as the final dose, following a 7 week titration.

caspase 3 [7] = details: SH-SY5Y
Description: as §1, with “For cell death studies, the cells were plated into 96 well black-bottom plates and grown for 24 hours in DMEM media before being exposed to toxin.” left out
After exposure to MPP+ or beta amyloid peptide, cells were collected in PBS and centrifuged at 450×g for 6 minutes at 4° C. […] The supernatant fractions were collected, and protein content was measured by Lowry assay (BioRad). […] The activity was measured using the assay buffer and the protocol provided by the manufacturers. […] Chromogen absorbance (p-NA) was measured on an OptiMax plate reader or chromogen fluorescence (AMC) on a SpectraMax Gemini plate reader at zero time and after 30 minutes of incubation at 37 degrees to estimate relative caspase activities. Chromogen signal at zero time was subtracted from the readings at 30 minutes. […]

oxidative stress [8] = details: 12 SALS subjects
Description: The present study was conducted in two phases. […] These participants underwent aspirin loading with subsequent 2,3-DHBA analysis. After receiving 1.3 grams of aspirin po, blood was drawn 2, 3, and 4 hours later. Serum was separated, frozen and stored at −80 degrees. Aliquots of serum were subsequently coded and blinded for 2,3-DHBA and salicylate assays.
The subjects received 1.3 grams of aspirin po, and blood was drawn 3 hours later. Following acquisition of these baseline samples, SALS participants began pramipexole therapy. Dosage escalation was performed similar to PD patients with an attempt made to reach 1.5 mg t.i.d.-q.i.d. as the final dose, following a 7 week titration. After each participant was on his/her highest pramipexole dose for three weeks, the aspirin loading study was performed once again. […] Each participant was then offered the opportunity to continue with pramipexole treatment.
Preparation of serum: 0.9 ml of serum at 4° C. was mixed with 0.2 ml of 1 M perchloric acid and centrifuged at 15,000 rpm for 10 minutes in a refrigerated microcentrifuge.
Assay for 2,3-DHBA: 20 uL of supernatant were injected in duplicate onto a C18 “Catecholamine” Adsorbosphere column (Alltech) perfused at 0.6 ml/min with buffer consisting of 125 ml/L acetonitrile, 1.5 gn/L of sodium heptane sulfonate, 3 ml/L triethylamine, 100 mg/L of Na2 EDTA with final pH adjusted to 2.8 with phosphoric acid. Detection utilized a CouloChem II flow-through electrochemical detector (ESA, with the following settings: guard cell=+600 mV; E1=−100 mV; E2=+400 mV). 2,3-DHBA eluted at 10–10.5 minutes under these conditions.
Assay for salicylate: 50 uL of supernatant were injected in duplicate onto a C8 Kromosil HPLC column (Alltech) perfused at 0.8–1.0 ml/min with 70% methanol/30% water/0.5% trifluoroacetic acid. Salicylate eluted at 6–7 minutes under these conditions and was detected by ultraviolet absorption at 315 nm.

## C[n+]1ccc(-c2ccccc2)cc1.[I-] [MPP+, methylpyridinium iodide]
Caspase 3 [1]; SH-SY5Y, 5 mM MPP+, by 24 hours
  increase of caspase 3 activity: about 2 fold
SH-SY5Y cells; SH-SY5Y, 5 mM MPP+ alone, 24 hours
  reduction of calcein uptake: about 60%

## CCCN[C@@H]1CCc2nc(N)sc2C1.Cl.Cl [R(+) PPX, R(+)-2-amino-4,5,6,7-tetrahydro-6-propylaminobenzathiazole dihydrochloride]
[2]
  pathological examination of all major organs: no lesions were found
[3]
  dopamine agonist activity: very little dopamine agonist activity
[4]
  potency to produce the side effects that result from the use of S(−) pramipexole: ≤ 1%
Caspase 9; SH-SY5Y, 5 mM MPP+ 8 hr, 1 mM PPX
  MPP+-induced increases in caspase 9 activity: blocked
Caspase 3 [1]; SH-SY5Y, 5 mM MPP+ 24 hours, 1 mM PPX added 1 hour before, p<0.05 vs MPP+
  MPP+-induced caspase 3 activation: suppressed
Oxidative stress [5]; 30 mg/kg/day in drinking water for 8 weeks
  forebrain oxidative stress produced by MPTP (2,3-DHBA): significantly reduced
Oxidative stress [5]; 100 mg/kg/day in drinking water for 8 weeks
  forebrain oxidative stress produced by MPTP (2,3-DHBA): significantly reduced
SH-SY5Y cells; 3 nM PPX, 5 mM MPP+ 24 hours, p=0.035
  calcein retention in the presence of MPP+, enantiomer comparison: greater calcein retention than S(−) PPX
SH-SY5Y cells; SH-SY5Y, 5 mM MPP+ 24 hours, 30 nM PPX added 4 hours before, effect retained through 30 μM
  calcein uptake after MPP+: substantially restored

## CCCN[C@H]1CCc2nc(N)sc2C1 [S(−) PPX, S(−)-2-amino-4,5,6,7-tetrahydro-6-propylaminobenzathiazole]
[6]
  tolerability: well tolerated
[3]
  dopamine agonist activity: potent agonist
Caspase 3 [7]; 100 μM beta amyloid 25–35
  reduction of the increases in caspase 3 activity following BA 25–35 peptide: about 70%
Caspase 3 [7]; drug alone without toxin
  effect on caspase 3 activity by itself: no suppressive effect
Caspase 9
  MPP+-induced increases in caspase 9 activity: blocked
Caspase 3 [1]
  MPP+-induced caspase 3 activation: suppressed
SH-SY5Y cells
  calcein retention in the presence of MPP+, enantiomer comparison: greater calcein retention than R(+) PPX
  calcein uptake after MPP+: substantially restored
Oxidative stress [8]; 3–6 mg per day oral, pre vs post treatment, 3 hours after 1.3 grams aspirin, p=0.015
  mean reduction of serum 2,3-DHBA concentration: about 45%
Oxidative stress [8]; 3–6 mg per day oral, pre vs post treatment, p=0.010
  average reduction of serum 2,3-DHBA normalized to salicylate levels: 59%
Oxidative stress [8]; without exception
  individual serum levels of 2,3-DHBA pre vs post treatment: reduced

## COc1cccc2c1cc([N+](=O)[O-])c1c(C(=O)O)cc3c(c12)OCO3 [aristolochic acid, Aristolochic acid]
Caspase 9; SH-SY5Y, 5 mM MPP+ 8 hr, 25 μM aristolochic acid
  MPP+-induced increases in caspase 9 activity: blocked
Caspase 3 [1]; SH-SY5Y, 5 mM MPP+ 24 hours, 25 μM aristolochic acid, p<0.05 vs MPP+
  MPP+-induced caspase 3 activation: prevented increases

## CO[C@H](C/C=C\C=C\CC/C=C/C[C@H](C)/C=C/C(=C\C(=O)O)CC(=O)O)/C(C)=C\C=C(/C)C(=O)O [bongkreckic acid, Bongkreckic acid]
Caspase 9; SH-SY5Y, 5 mM MPP+ 8 hr, 250 μM bongkreckic acid
  MPP+-induced increases in caspase 9 activity: blocked
Caspase 3 [1]; SH-SY5Y, 5 mM MPP+ 24 hours, 250 μM bongkreckic acid, p<0.05 vs MPP+
  MPP+-induced caspase 3 activation: blocked
